# Results from patent US20260062422A1 (Halda Therapeutics OpCo, Inc., priority 2022, published 2026).
# Tests used:
# [1] = test system: T-Rex 293 cell line SC3 cells having increased expression of androgen receptor protein due to exposure to doxycycline; test: Cellular growth inhibition, T-Rex 293 SC3 cells with doxycycline (androgen receptor induced), CellTiter-Glo; format: cell-based; settings: T-Rex 293 SC3 cells with 10 ng/mL doxycycline (increased androgen receptor expression)
# Method in brief: (§1)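 Doxycycline-inducible androgen receptor T-Rex 293 clone SC3, seeded at 2500/well in phenol red-free DMEM with 10% charcoal-dextran FBS, without doxycycline or with 10 ng/mL to induce receptor. Compound added after 24 h (0.5% DMSO), 72 h at 37 °C; CellTiter-Glo 2.0 luminescence, GI50 by four-parameter fit.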
# T47D cells = test: Cellular growth inhibition assay for T47D cells, CellTiter-Glo; format: cell-based, human; settings: 72 hours treatment, CellTiter-Glo 2.0 cell viability
# Method in brief: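 Growth inhibition as GI50, fitted with four parameters to CellTiter-Glo luminescence after 72 h of compound exposure (0.5% DMSO). Cells were T47D, grown in insulin-supplemented (0.2 units/mL) DMEM with 10% FBS and treated one day post-seeding.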
# [2] = test system: T-Rex 293 cell line SC3 cells lacking increased expression of androgen receptor protein; test: Cellular growth inhibition, T-Rex 293 SC3 cells without doxycycline, CellTiter-Glo; format: cell-based; settings: T-Rex 293 SC3 cells not exposed to doxycycline, CellTiter-Glo 2.0
# Method in brief: as §1
# VCaP cells = test: Cellular growth inhibition assay for VCaP cells, CellTiter-Glo; format: cell-based, human; settings: 72 hours treatment, CellTiter-Glo 2.0
# Method in brief: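 GI50 values come from four-parameter curve fits of luminescence data normalized to a zero baseline. Compound, in medium with 0.5% DMSO, was added one day after plating and left for 72 h before CellTiter-Glo 2.0 addition.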
SMILES,"GI50 (T47D cells; Homo sapiens, T47D, 72 h) [nM]","GI50 (VCaP cells; Homo sapiens, VCaP, 72 h) [nM]",GI50 (T47D cells) [nM],GI50 (VCaP cells) [nM],GI50 ([1]; 72 h) [nM],GI50 ([2]; 72 h) [nM],GI50 ([1]; 72 hours) [nM],GI50 ([2]; 72 hours) [nM]
Cc1sc2c(c1C)C(c1ccc(N3CC(C4CCN(c5ncc(C(=O)N[C@H]6C(C)(C)[C@H](Oc7ccc(C#N)c(Cl)c7)C6(C)C)cn5)C4)C3)cc1)=NC1(CC1)c1nnc(C)n1-2 (stereo partly shown) [Compound I-604],500 to 1500,< 500,,,< 500,< 500,,
Cc1sc2c(c1C)C(c1ccc(N3CC(C4CCN(c5ncc(C(=O)N[C@H]6C(C)(C)[C@H](Oc7ccc(C#N)c(Cl)c7)C6(C)C)cn5)C4)C3)cc1)=NC1(CC1)c1nnc(C)n1-2 (stereo partly shown) [Compound I-605],,,500 to 1500,< 500,,,< 500,< 500
CC[C@@H]1N=C(c2ccc(N3CC(CC4CN(c5cnc(C(=O)N[C@H]6C(C)(C)[C@H](Oc7ccc(C#N)c(Cl)c7)C6(C)C)cn5)C4)C3)cc2)c2c(sc(C)c2C)-n2c(C)nnc21 [Compound I-607],< 500,> 3000,,,< 500,> 3000,,
COCC[C@@H]1N=C(c2ccc(N3CC(CC4CCN(c5cnc(C(=O)N[C@H]6C(C)(C)[C@H](Oc7ccc(C#N)c(Cl)c7)C6(C)C)cn5)CC4)C3)cc2)c2c(sc(C)c2C)-n2c(C)nnc21 [Compound I-609],< 500,500 to 1500,,,< 500,< 500,,
COCC[C@@H]1N=C(c2ccc(N3CC(CC4CN(c5cnc(C(=O)N[C@H]6C(C)(C)[C@H](Oc7ccc(C#N)c(Cl)c7)C6(C)C)cn5)C4)C3)cc2)c2c(sc(C)c2C)-n2c(C)nnc21 [Compound I-611],1500 to 3000,< 500,,,< 500,< 500,,
Cc1sc2c(c1C)C(c1ccc(N3CC(CC4CCN(c5ncc(C(=O)N(C)[C@H]6C(C)(C)[C@H](Oc7ccc(C#N)c(Cl)c7)C6(C)C)cn5)CC4)C3)cc1)=N[C@@H](C)c1nnc(C)n1-2 [Compound I-618],< 500,1500 to 3000,,,< 500,> 3000,,
Cc1sc2c(c1C)C(c1ccc(N3CC(CC4CN(c5ccc(C(=O)N[C@H]6C(C)(C)[C@H](Oc7ccc(C#N)c(Cl)c7)C6(C)C)nc5)C4)C3)cc1)=N[C@@H](Cc1ncco1)c1nnc(C)n1-2 [Compound I-621],< 500,< 500,,,< 500,< 500,,
Cc1sc2c(c1C)C(c1ccc(NCC3(F)CCN(c4ncc(C(=O)N[C@H]5C(C)(C)[C@H](Oc6ccc(C#N)c(Cl)c6)C5(C)C)cn4)CC3)cc1)=NC(Cc1ncco1)c1nnc(C)n1-2 (stereo partly shown) [Compound I-634],< 500,500 to 1500,,,< 500,> 3000,,
Cc1sc2c(c1C)C(c1ccc(N3C4CCC3CN(c3ncc(C(=O)N[C@H]5C(C)(C)[C@H](Oc6ccc(C#N)c(Cl)c6)C5(C)C)cn3)C4)cc1)=N[C@@H](Cc1ncco1)c1nnc(C)n1-2 [Compound I-635],< 500,< 500,,,,,< 500,< 500
Cc1sc2c(c1C)C(c1ccc(NCC3CCN(c4ncc(C(=O)N[C@H]5C(C)(C)[C@H](Oc6ccc(C#N)c(Cl)c6)C5(C)C)cn4)CC3)cc1)=N[C@@H](Cc1ncco1)c1nnc(C)n1-2 [Compound I-636],< 500,< 500,,,< 500,< 500,,
Cc1sc2c(c1C)C(c1ccc(N3CCCC4(CCN(c5ncc(C(=O)N[C@H]6C(C)(C)[C@H](Oc7ccc(C#N)c(Cl)c7)C6(C)C)cn5)CC4)C3)cc1)=NC(Cc1ncco1)c1nnc(C)n1-2 (stereo partly shown) [Compound I-637],< 500,< 500,,,< 500,> 3000,,
Cc1sc2c(c1C)C(c1ccc(NCC3CCCCN3c3ncc(C(=O)N[C@H]4C(C)(C)[C@H](Oc5ccc(C#N)c(Cl)c5)C4(C)C)cn3)cc1)=NC(Cc1ncco1)c1nnc(C)n1-2 (stereo partly shown) [Compound I-638],< 500,< 500,,,< 500,< 500,,
Cc1sc2c(c1C)C(c1ccc(NCC3CCN(c4ncc(C(=O)N[C@H]5C(C)(C)[C@H](Oc6ccc(C#N)c(Cl)c6)C5(C)C)cn4)C3)cc1)=NC(Cc1ncco1)c1nnc(C)n1-2 (stereo partly shown) [Compound I-639],< 500,< 500,,,< 500,< 500,,
Cc1sc2c(c1C)C(c1ccc(NC3CCCN(c4ncc(C(=O)N[C@H]5C(C)(C)[C@H](Oc6ccc(C#N)c(Cl)c6)C5(C)C)cn4)CC3)cc1)=NC(Cc1ncco1)c1nnc(C)n1-2 (stereo partly shown) [Compound I-640],< 500,< 500,,,< 500,500 to 1500,,
Cc1sc2c(c1C)C(c1ccc(N3CCC4(CC3)CCN(c3ncc(C(=O)N[C@H]5C(C)(C)[C@H](Oc6ccc(C#N)c(Cl)c6)C5(C)C)cn3)C4)cc1)=NC(Cc1ncco1)c1nnc(C)n1-2 (stereo partly shown) [Compound I-643],< 500,< 500,,,< 500,< 500,,
Cc1sc2c(c1C)C(c1ccc(N3CCC4(CC3)CCN(c3ncc(C(=O)N[C@H]5C(C)(C)[C@H](Oc6ccc(C#N)c(Cl)c6)C5(C)C)cn3)CC4)cc1)=N[C@@H](Cc1ncco1)c1nnc(C)n1-2 [Compound I-645],< 500,< 500,,,< 500,> 3000,,
Cc1sc2c(c1C)C(c1ccc(NC[C@@H]3CN(c4ncc(C(=O)N[C@H]5C(C)(C)[C@H](Oc6ccc(C#N)c(Cl)c6)C5(C)C)cn4)CCO3)cc1)=N[C@@H](Cc1ncco1)c1nnc(C)n1-2 [Compound I-646],< 500,< 500,,,< 500,< 500,,

# Second part, led by results:
"GI50 (T47D cells; Homo sapiens, T47D, 72 h) [nM]","GI50 (VCaP cells; Homo sapiens, VCaP, 72 h) [nM]",GI50 (T47D cells) [nM],GI50 (VCaP cells) [nM],SMILES,GI50 ([1]; 72 h) [nM],GI50 ([2]; 72 h) [nM],GI50 ([1]; 72 hours) [nM],GI50 ([2]; 72 hours) [nM]
> 3000,< 500,,,CC[C@@H]1N=C(c2ccc(OC3CC4(C3)CC3(CCN(c5ncc(C(=O)N[C@H]6C(C)(C)[C@H](Oc7ccc(C#N)c(Cl)c7)C6(C)C)cn5)CC3)C4)cc2)c2c(sc(C)c2C)-n2c(C)nnc21 [Compound I-606],< 500,> 3000,,
500 to 1500,< 500,,,COCC[C@@H]1N=C(c2ccc(N3CC(CC4CCN(c5ncc(C(=O)N[C@H]6C(C)(C)[C@H](Oc7ccc(C#N)c(Cl)c7)C6(C)C)cn5)CC4)C3)cc2)c2c(sc(C)c2C)-n2c(C)nnc21 [Compound I-608],< 500,> 3000,,
1500 to 3000,< 500,,,COCC[C@@H]1N=C(c2ccc(N3CC(C4CCN(c5ncc(C(=O)N[C@H]6C(C)(C)[C@H](Oc7ccc(C#N)c(Cl)c7)C6(C)C)cn5)CC4)C3)cc2)c2c(sc(C)c2C)-n2c(C)nnc21 [Compound I-610],< 500,> 3000,,
,500 to 1500,1500 to 3000,,CC[C@@H]1N=C(c2ccc(CC3CCC4(C3)CN(c3ncc(C(=O)N[C@H]5C(C)(C)[C@H](Oc6ccc(C#N)c(Cl)c6)C5(C)C)cn3)CCO4)cc2)c2c(sc(C)c2C)-n2c(C)nnc21 (stereo partly shown) [Compound I-612],< 500,,,500 to 1500
,,500 to 1500,< 500,CC[C@@H]1N=C(c2ccc(CC3CCC4(C3)CN(c3ncc(C(=O)N[C@H]5C(C)(C)[C@H](Oc6ccc(C#N)c(Cl)c6)C5(C)C)cn3)CCO4)cc2)c2c(sc(C)c2C)-n2c(C)nnc21 (stereo partly shown) [Compound I-613],,,< 500,> 3000
,,< 500,< 500,CC[C@@H]1N=C(c2ccc(CC3CCC4(C3)CN(c3ncc(C(=O)N[C@H]5C(C)(C)[C@H](Oc6ccc(C#N)c(Cl)c6)C5(C)C)cn3)CCO4)cc2)c2c(sc(C)c2C)-n2c(C)nnc21 (stereo partly shown) [Compound I-614],,,< 500,> 3000
,,> 3000,< 500,CC[C@@H]1N=C(c2ccc(CC3CCC4(C3)CN(c3ncc(C(=O)N[C@H]5C(C)(C)[C@H](Oc6ccc(C#N)c(Cl)c6)C5(C)C)cn3)CCO4)cc2)c2c(sc(C)c2C)-n2c(C)nnc21 (stereo partly shown) [Compound I-615],,,< 500,< 500
< 500,< 500,,,Cc1sc2c(c1C)C(c1ccc(N3CC(C4CCN(c5ncc(C(=O)N[C@H]6C(C)(C)[C@H](Oc7ccc(C#N)c(Cl)c7)C6(C)C)cn5)C4)C3)cc1)=N[C@@H](C)c1nnc(C)n1-2 (stereo partly shown) [Compound I-616],< 500,< 500,,
,,< 500,< 500,Cc1sc2c(c1C)C(c1ccc(N3CC(C4CCN(c5ncc(C(=O)N[C@H]6C(C)(C)[C@H](Oc7ccc(C#N)c(Cl)c7)C6(C)C)cn5)C4)C3)cc1)=N[C@@H](C)c1nnc(C)n1-2 (stereo partly shown) [Compound I-617],,,< 500,< 500
< 500,< 500,,,Cc1sc2c(c1C)C(c1ccc(CC3CCC4(C3)CN(c3ncc(C(=O)N[C@H]5C(C)(C)[C@H](Oc6ccc(C#N)c(Cl)c6)C5(C)C)cn3)CCO4)cc1)=N[C@@H](C)c1nnc(C)n1-2 (stereo partly shown) [Compound I-619],< 500,500 to 1500,,
,,500 to 1500,< 500,Cc1sc2c(c1C)C(c1ccc(CC3CCC4(C3)CN(c3ncc(C(=O)N[C@H]5C(C)(C)[C@H](Oc6ccc(C#N)c(Cl)c6)C5(C)C)cn3)CCO4)cc1)=N[C@@H](C)c1nnc(C)n1-2 (stereo partly shown) [Compound I-620],,,< 500,< 500
